We go through ten compounds from patent US9163021B2, “Pyrrolo[3,2-c]pyridine tropomyosin-related kinase inhibitors” (Pfizer Limited, priority 2012, dated 2015).

For the assay, the target named is TRKA (Homo sapiens (Human), UniProt P04629). Nature of the assay: Isolated TRK enzyme assay (HTRF KinEASE-TK), PV3144 TrkA enzyme assay. As to conditions: arithmetic mean where more than one reading. It is filed as biochemical. An outline of the steps: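 Kinase (recombinant His-TrkA cytoplasmic domain, ATP-preactivated 20 min) met compound 20 min, then biotinylated TK substrate (1 µM final) with Mg2+/DTT buffer; HTRF detection.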
Chain of TRKA (P04629 441-796): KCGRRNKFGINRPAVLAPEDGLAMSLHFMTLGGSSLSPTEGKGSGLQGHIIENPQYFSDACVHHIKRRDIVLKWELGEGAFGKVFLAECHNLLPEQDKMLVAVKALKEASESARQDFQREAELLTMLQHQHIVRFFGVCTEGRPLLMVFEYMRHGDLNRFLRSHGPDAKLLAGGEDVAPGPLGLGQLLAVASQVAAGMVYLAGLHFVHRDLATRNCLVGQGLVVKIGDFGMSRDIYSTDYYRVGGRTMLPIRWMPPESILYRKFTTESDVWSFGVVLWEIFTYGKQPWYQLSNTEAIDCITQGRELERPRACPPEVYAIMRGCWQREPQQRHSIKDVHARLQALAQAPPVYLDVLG

For the compound `CC(CO)n1cc(C(=O)c2cncc(NC(=O)Cn3cc(C(F)(F)F)nn3)c2)c2cncc(F)c21` (single isomer, unassigned) [Example 220, N-(5-{[7-fluoro-1-(1-hydroxypropan-2-yl)-1H-pyrrolo[3,2-c]pyridin-3-yl]carbonyl}pyridin-3-yl)-2-[4-(trifluoromethyl)-1H-1,2,3-triazol-1-yl]acetamide], half-maximal inhibition (IC50) required 160 nM.

On to `CC(C)n1cc(C(=O)c2cncc(NC(=O)Cc3ccc(F)cn3)c2)c2cnccc21` [Example 23, 2-(5-fluoropyridin-2-yl)-N-(5-{[1-(propan-2-yl)-1H-pyrrolo[3,2-c]pyridin-3-yl]carbonyl}pyridin-3-yl)acetamide], for which half-maximal inhibition (IC50) required 192 nM.

For `CC(C)n1cc(C(=O)c2ccnc(NC(=O)Cc3nnnn3C)c2)c2cnccc21` [Example 192, 2-(1-methyl-1H-tetrazol-5-yl)-N-(4-{[1-(propan-2-yl)-1H-pyrrolo[3,2-c]pyridin-3-yl]carbonyl}pyridin-2-yl)acetamide], half-maximal inhibition (IC50) was put at 9800 nM.

Regarding `O=C(Cc1ccc(F)cn1)Nc1cc(C(=O)c2cn(C3COC3)c3ccncc23)ccn1` [Example 196, 2-(5-fluoropyridin-2-yl)-N-(4-{[1-(oxetan-3-yl)-1H-pyrrolo[3,2-c]pyridin-3-yl]carbonyl}pyridin-2-yl)acetamide], the IC50 (in general, the point on the concentration scale where inhibition reaches its midpoint) was found to be 1280 nM.

`Cc1cc(CC(=O)Nc2cncc(C(=O)c3cn(C(C)C)c4ccncc34)c2)[nH]n1` [Example 136, 2(3-methyl-1H-pyrazol-5-yl)-N-(5-{[1-(propan-2-yl)-1H-pyrrolo[3,2-c]pyridin-3-yl]carbonyl}pyridin-3-yl)acetamide]: the IC50 came to 268 nM.

The compound `COc1ccc(CC(=O)Nc2cc(C(=O)c3cn(C(C)C)c4ccncc34)ccn2)cc1` [Example 101, 2-(4-methoxyphenyl)-N-(4-{[1-(propan-2-yl)-1H-pyrrolo[3,2-c]pyridin-3-yl]carbonyl}pyridin-2-yl)acetamide] returned an IC50 of 51.7 nM.

For `CC(CO)n1cc(C(=O)c2cncc(NC(=O)Cn3cc(C4CC4)nn3)c2)c2cnccc21` (single isomer, unassigned) [Example 61, 2-(4-cyclopropyl-1H-1,2,3-triazol-1-yl)-N-(5-{[1-(1-hydroxypropan-2-yl)-1H-pyrrolo[3,2-c]pyridin-3-yl]carbonyl}pyridin-3-yl)acetamide], the IC50 amounted to 65.9 nM.

“N-(4-{[1-(propan-2-yl)-1H-pyrrolo[3,2-c]pyridin-3-yl]carbonyl}pyridin-2-yl)-2-[4-(trifluoromethoxy)phenyl]acetamide [Example 168]” registered a half-maximal inhibitory concentration (IC50) of 14.7 nM. This IC50 is about 4.5-fold lower than that of the compound before.

The compound `CC(C)n1cc(C(=O)c2ccnc(NC(=O)Cc3ccc(C(F)(F)F)cc3)c2)c2cnccc21` [Example 175, N-(4-{[1-(propan-2-yl)-1H-pyrrolo[3,2-c]pyridin-3-yl]carbonyl}pyridin-2-yl)-2-[4-(trifluoromethyl)phenyl]acetamide] yielded an IC50 of 5.3 nM.

On to `CC(CO)n1cc(C(=O)c2cncc(NC(=O)Cc3ccc(Cl)cn3)c2)c2cnccc21` (single isomer, unassigned) [Example 66, 2-(5-chloropyridin-2-yl)-N-(5-{[1-(1-hydroxypropan-2-yl)-1H-pyrrolo[3,2-c]pyridin-3-yl]carbonyl}pyridin-3-yl)acetamide], for which half-maximal inhibition (IC50) required 37.6 nM. This IC50 is about 7.1-fold higher than that of the compound before.
